Reference: ChEMBL document CHEMBL2311450, “Synthesis and antibacterial evaluation of novel 11,4″-disubstituted azithromycin analogs with greatly improved activity against erythromycin-resistant bacteria” (2013)
≈ marks a conversion by molar mass, not a printed value.

Legend:
Staphylococcus aureus [1] = experiment: Antibacterial activity against penicillin-resistant Staphylococcus aureus clinical isolate by broth microdilution method; type: functional
Salmonella typhimurium [2] = experiment: Antibacterial activity against Salmonella typhimurium TA102 by broth microdilution method; type: functional, Salmonella enterica subsp. enterica serovar Typhimurium; conditions: Salmonella enterica
Streptococcus pneumoniae [3] = experiment: Antibacterial activity against erythromycin-resistant Streptococcus pneumoniae AB11 expressing erm and mef genes by broth microdilution method; type: functional
Streptococcus pneumoniae [4] = experiment: Antibacterial activity against erythromycin-susceptible Streptococcus pneumoniae ATCC 49619 by broth microdilution method; type: functional
Streptococcus pneumoniae [5] = experiment: Ratio of azithromycin MIC to compound MIC for erythromycin-resistant Streptococcus pneumoniae AB11 expressing erm and mef genes; type: functional
Streptococcus pneumoniae [6] = experiment: Antibacterial activity against erythromycin-resistant Streptococcus pneumoniae B1 expressing erm gene by broth microdilution method; type: functional
Streptococcus pyogenes [7] = experiment: Antibacterial activity against erythromycin-resistant Streptococcus pyogenes RE clinical isolate by broth microdilution method; type: functional
Salmonella typhimurium [8] = experiment: Antibacterial activity against Salmonella typhimurium TA98 by broth microdilution method; type: functional, Salmonella enterica subsp. enterica serovar Typhimurium; conditions: Salmonella enterica
Streptococcus pneumoniae [9] = experiment: Ratio of azithromycin MIC to compound MIC for erythromycin-resistant Streptococcus pneumoniae A22072 expressing mef gene; type: functional
Streptococcus pyogenes [10] = experiment: Antibacterial activity against erythromycin-susceptible Streptococcus pyogenes by broth microdilution method; type: functional
Streptococcus pneumoniae [11] = experiment: Antibacterial activity against erythromycin-resistant Streptococcus pneumoniae A22072 expressing mef gene by broth microdilution method; type: functional
Staphylococcus aureus [12] = experiment: Antibacterial activity against methicillin-susceptible Staphylococcus aureus ATCC 29213 by broth microdilution method; type: functional
Streptococcus pneumoniae [13] = experiment: Ratio of azithromycin MIC to compound MIC for erythromycin-resistant Streptococcus pneumoniae B1; type: functional
Staphylococcus aureus [14] = experiment: Antibacterial activity against erythromycin-susceptible Staphylococcus aureus ATCC 25923 by broth microdilution method; type: functional

**Q.** Which results are given for CC[C@H]1OC(=O)[C@H](C)[C@@H](O[C@H]2C[C@@](C)(OC)[C@@H](OC(=O)NCCCCNC(=O)c3cc([N+](=O)[O-])cc([N+](=O)[O-])c3)[C@H](C)O2)[C@H](C)[C@@H](O[C@@H]2O[C@H](C)C[C@H](N(C)C)[C@H]2O)[C@](C)(O)C[C@@H](C)CN(C)[C@H](C)[C@@H](OC(=O)NCc2ccc(F)c(F)c2)[C@]1(C)O?
**A.** MIC (Staphylococcus aureus [1]): 4 µg/mL (≈ 3.26 µM); MIC (Salmonella typhimurium [2]): 0.5 µg/mL (≈ 0.408 µM); MIC (Streptococcus pneumoniae [3]): 2 µg/mL (≈ 1.63 µM); MIC (Streptococcus pneumoniae [4]): 0.03 µg/mL (≈ 0.0245 µM); Ratio (Streptococcus pneumoniae [5]): 128; MIC (Streptococcus pneumoniae [6]): 0.25 µg/mL (≈ 0.204 µM); MIC (Streptococcus pyogenes [7]): 16 µg/mL (≈ 13 µM); MIC (Salmonella typhimurium [8]): 1 µg/mL (≈ 0.815 µM); Ratio (Streptococcus pneumoniae [9]): 133; MIC (Streptococcus pyogenes [10]): 2 µg/mL (≈ 1.63 µM); MIC (Streptococcus pneumoniae [11]): 0.03 µg/mL (≈ 0.0245 µM); MIC (Staphylococcus aureus [12]): 4 µg/mL (≈ 3.26 µM); Ratio (Streptococcus pneumoniae [13]): 512; MIC (Staphylococcus aureus [14]): 0.25 µg/mL (≈ 0.204 µM)

**Q.** With CC[C@H]1OC(=O)[C@H](C)[C@@H](O[C@H]2C[C@@](C)(OC)[C@@H](OC(=O)NCCCCNC(=O)c3cc([N+](=O)[O-])cc([N+](=O)[O-])c3)[C@H](C)O2)[C@H](C)[C@@H](O[C@@H]2O[C@H](C)C[C@H](N(C)C)[C@H]2O)[C@](C)(O)C[C@@H](C)CN(C)[C@H](C)[C@@H](OC(=O)NCCc2ccc(OC)cc2)[C@]1(C)O as the molecule, how does the MIC (Staphylococcus aureus [1]) read?
**A.** 4 µg/mL (≈ 3.24 µM)

**Q.** And the MIC (Salmonella typhimurium [2])?
**A.** 0.5 µg/mL (≈ 0.405 µM)

**Q.** What about the MIC (Streptococcus pneumoniae [3]) of the same molecule?
**A.** 2 µg/mL (≈ 1.62 µM)

**Q.** And the MIC (Streptococcus pneumoniae [4])?
**A.** 0.03 µg/mL (≈ 0.0243 µM)

**Q.** What about the Ratio (Streptococcus pneumoniae [5]) of the same molecule?
**A.** 128

**Q.** What about the MIC (Streptococcus pneumoniae [6]) of the same molecule?
**A.** 0.25 µg/mL (≈ 0.203 µM)

**Q.** What about the MIC (Streptococcus pyogenes [7]) of the same molecule?
**A.** 16 µg/mL (≈ 13 µM)

**Q.** What about the MIC (Salmonella typhimurium [8]) of the same molecule?
**A.** 1 µg/mL (≈ 0.81 µM)

**Q.** And the Ratio (Streptococcus pneumoniae [9])?
**A.** 133

**Q.** What about the MIC (Streptococcus pyogenes [10]) of the same molecule?
**A.** 1 µg/mL (≈ 0.81 µM)

**Q.** What about the MIC (Streptococcus pneumoniae [11]) of the same molecule?
**A.** 0.03 µg/mL (≈ 0.0243 µM)

**Q.** What about the MIC (Staphylococcus aureus [12]) of the same molecule?
**A.** 4 µg/mL (≈ 3.24 µM)

**Q.** And the Ratio (Streptococcus pneumoniae [13])?
**A.** 512

**Q.** And the MIC (Staphylococcus aureus [14])?
**A.** 0.25 µg/mL (≈ 0.203 µM)

**Q.** What does the source list for CC[C@H]1OC(=O)[C@H](C)[C@@H](O[C@H]2C[C@@](C)(OC)[C@@H](OC(=O)NCCCCNC(=O)c3cc([N+](=O)[O-])cc([N+](=O)[O-])c3)[C@H](C)O2)[C@H](C)[C@@H](O[C@@H]2O[C@H](C)C[C@H](N(C)C)[C@H]2O)[C@](C)(O)C[C@@H](C)CN(C)[C@H](C)[C@@H](OC(=O)NCCc2ccccc2Cl)[C@]1(C)O?
**A.** MIC (Staphylococcus aureus [1]): 2 µg/mL (≈ 1.61 µM); MIC (Salmonella typhimurium [2]): 0.25 µg/mL (≈ 0.202 µM); MIC (Streptococcus pneumoniae [3]): 2 µg/mL (≈ 1.61 µM); MIC (Streptococcus pneumoniae [4]): 0.03 µg/mL (≈ 0.0242 µM); Ratio (Streptococcus pneumoniae [5]): 128; MIC (Streptococcus pneumoniae [6]): 0.25 µg/mL (≈ 0.202 µM); MIC (Streptococcus pyogenes [7]): 16 µg/mL (≈ 12.9 µM); MIC (Salmonella typhimurium [8]): 1 µg/mL (≈ 0.807 µM); Ratio (Streptococcus pneumoniae [9]): 133; MIC (Streptococcus pyogenes [10]): 1 µg/mL (≈ 0.807 µM); MIC (Streptococcus pneumoniae [11]): 0.03 µg/mL (≈ 0.0242 µM); MIC (Staphylococcus aureus [12]): 4 µg/mL (≈ 3.23 µM); Ratio (Streptococcus pneumoniae [13]): 512; MIC (Staphylococcus aureus [14]): 0.12 µg/mL (≈ 0.0969 µM)

**Q.** With CC[C@H]1OC(=O)[C@H](C)[C@@H](O[C@H]2C[C@@](C)(OC)[C@@H](OC(=O)NNC(=O)c3ccccc3OC)[C@H](C)O2)[C@H](C)[C@@H](O[C@@H]2O[C@H](C)C[C@H](N(C)C)[C@H]2O)[C@](C)(O)C[C@@H](C)CN(C)[C@H](C)[C@@H](OC(=O)NCCc2ccccc2)[C@]1(C)O as the molecule, how does the MIC (Staphylococcus aureus [1]) read?
**A.** 4 µg/mL (≈ 3.68 µM)

**Q.** What about the MIC (Salmonella typhimurium [2]) of the same molecule?
**A.** 8 µg/mL (≈ 7.35 µM)

**Q.** What about the MIC (Streptococcus pneumoniae [3]) of the same molecule?
**A.** 16 µg/mL (≈ 14.7 µM)

**Q.** What about the MIC (Streptococcus pneumoniae [4]) of the same molecule?
**A.** 0.06 µg/mL (≈ 0.0551 µM)

**Q.** What about the MIC (Streptococcus pneumoniae [6]) of the same molecule?
**A.** 8 µg/mL (≈ 7.35 µM)

**Q.** And the MIC (Streptococcus pyogenes [7])?
**A.** 64 µg/mL (≈ 58.8 µM)

**Q.** And the MIC (Salmonella typhimurium [8])?
**A.** 16 µg/mL (≈ 14.7 µM)

**Q.** And the MIC (Streptococcus pyogenes [10])?
**A.** 32 µg/mL (≈ 29.4 µM)

**Q.** What about the MIC (Streptococcus pneumoniae [11]) of the same molecule?
**A.** 2 µg/mL (≈ 1.84 µM)

**Q.** And the MIC (Staphylococcus aureus [12])?
**A.** 2 µg/mL (≈ 1.84 µM)

**Q.** What about the MIC (Staphylococcus aureus [14]) of the same molecule?
**A.** 2 µg/mL (≈ 1.84 µM)

**Q.** How did the MIC (Staphylococcus aureus [1]) turn out when CC[C@H]1OC(=O)[C@H](C)[C@@H](O[C@H]2C[C@@](C)(OC)[C@@H](O)[C@H](C)O2)[C@H](C)[C@@H](O[C@@H]2O[C@H](C)C[C@H](N(C)C)[C@H]2O)[C@](C)(O)C[C@@H](C)CN(C)[C@H](C)[C@@H](O)[C@]1(C)O [AZITHROMYCIN] was run?
**A.** 0.5 µg/mL (≈ 0.668 µM)

**Q.** And the MIC (Salmonella typhimurium [2])?
**A.** 0.25 µg/mL (≈ 0.334 µM)

**Q.** What about the MIC (Streptococcus pneumoniae [3]) of the same molecule?
**A.** 256 µg/mL (≈ 342 µM)

**Q.** And the MIC (Streptococcus pneumoniae [4])?
**A.** 0.03 µg/mL (≈ 0.0401 µM)

**Q.** What about the MIC (Streptococcus pneumoniae [6]) of the same molecule?
**A.** 128 µg/mL (≈ 171 µM)

**Q.** What about the MIC (Streptococcus pyogenes [7]) of the same molecule?
**A.** 8 µg/mL (≈ 10.7 µM)

**Q.** What about the MIC (Salmonella typhimurium [8]) of the same molecule?
**A.** 0.5 µg/mL (≈ 0.668 µM)

**Q.** And the MIC (Streptococcus pyogenes [10])?
**A.** 0.03 µg/mL (≈ 0.0401 µM)

**Q.** What about the MIC (Streptococcus pneumoniae [11]) of the same molecule?
**A.** 4 µg/mL (≈ 5.34 µM)

**Q.** And the MIC (Staphylococcus aureus [12])?
**A.** 2 µg/mL (≈ 2.67 µM)

**Q.** What about the MIC (Staphylococcus aureus [14]) of the same molecule?
**A.** 0.25 µg/mL (≈ 0.334 µM)

**Q.** How did the MIC (Staphylococcus aureus [1]) turn out when CC[C@H]1OC(=O)[C@H](C)[C@@H](O[C@H]2C[C@@](C)(OC)[C@@H](O)[C@H](C)O2)[C@H](C)[C@@H](O[C@@H]2O[C@H](C)C[C@H](N(C)C)[C@H]2O)[C@](C)(OC)C[C@@H](C)C(=O)[C@H](C)[C@@H](O)[C@]1(C)O [CLARITHROMYCIN] was run?
**A.** 0.03 µg/mL (≈ 0.0401 µM)

**Q.** What about the MIC (Salmonella typhimurium [2]) of the same molecule?
**A.** 0.25 µg/mL (≈ 0.334 µM)

**Q.** And the MIC (Streptococcus pneumoniae [3])?
**A.** 128 µg/mL (≈ 171 µM)

**Q.** What about the MIC (Streptococcus pneumoniae [4]) of the same molecule?
**A.** 0.03 µg/mL (≈ 0.0401 µM)

**Q.** What about the MIC (Streptococcus pneumoniae [6]) of the same molecule?
**A.** 64 µg/mL (≈ 85.6 µM)

**Q.** What about the MIC (Streptococcus pyogenes [7]) of the same molecule?
**A.** 4 µg/mL (≈ 5.35 µM)

**Q.** What about the MIC (Salmonella typhimurium [8]) of the same molecule?
**A.** 0.5 µg/mL (≈ 0.668 µM)

**Q.** And the MIC (Streptococcus pyogenes [10])?
**A.** 0.03 µg/mL (≈ 0.0401 µM)

**Q.** What about the MIC (Streptococcus pneumoniae [11]) of the same molecule?
**A.** 4 µg/mL (≈ 5.35 µM)

**Q.** What about the MIC (Staphylococcus aureus [12]) of the same molecule?
**A.** 0.12 µg/mL (≈ 0.16 µM)

**Q.** What about the MIC (Staphylococcus aureus [14]) of the same molecule?
**A.** 0.12 µg/mL (≈ 0.16 µM)

**Q.** Which results are given for CC[C@H]1OC(=O)[C@H](C)[C@@H](O[C@H]2C[C@@](C)(OC)[C@@H](O)[C@H](C)O2)[C@H](C)[C@@H](O[C@@H]2O[C@H](C)C[C@H](N(C)C)[C@H]2O)[C@](C)(O)C[C@@H](C)C(=O)[C@H](C)[C@@H](O)[C@]1(C)O [ERYTHROMYCIN]?
**A.** MIC (Staphylococcus aureus [1]): 0.25 µg/mL (≈ 0.341 µM); MIC (Salmonella typhimurium [2]): 2 µg/mL (≈ 2.73 µM); MIC (Streptococcus pneumoniae [3]): 256 µg/mL (≈ 349 µM); MIC (Streptococcus pneumoniae [4]): 0.03 µg/mL (≈ 0.0409 µM); MIC (Streptococcus pneumoniae [6]): 128 µg/mL (≈ 174 µM); MIC (Streptococcus pyogenes [7]): 4 µg/mL (≈ 5.45 µM); MIC (Salmonella typhimurium [8]): 0.5 µg/mL (≈ 0.681 µM); MIC (Streptococcus pyogenes [10]): 0.03 µg/mL (≈ 0.0409 µM); MIC (Streptococcus pneumoniae [11]): 8 µg/mL (≈ 10.9 µM); MIC (Staphylococcus aureus [12]): 0.12 µg/mL (≈ 0.164 µM); MIC (Staphylococcus aureus [14]): 0.06 µg/mL (≈ 0.0818 µM)
